Source: the supplement of paper PMC10307832

Experiments:
Assay in all cases: relative viability (nuclei count vs DMSO), 5 days (fraction); higher = more cells survive
[1] = compound: C1CNCCC1C2=CC(=NN2)C3=CC=NC=C3 + CCNC(=O)c1noc(-c2cc(C(C)C)c(O)cc2O)c1-c1ccc(CN2CCOCC2)cc1 [Luminespib] (partner 0.01 µM)
Summary of the method: (§1)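 After 5 days of treatment, lung cancer cells in 1536-well plates were fixed and stained in a single step (final 0.05% Triton X-100, 1% formaldehyde, 1 ug/ml Hoechst) and their nuclei counted on 4× images. Treatment had been applied by pin tool the day after seeding as one drug alone or as a fixed anchor-drug dose with five library-drug doses (not always all listed) in √10 steps. Relative viability is the nuclei count of treated wells divided by that of vehicle wells, and values are medians of duplicate plates.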

[2] = compound: C1CNCCC1C2=CC(=NN2)C3=CC=NC=C3 + CS(=O)(=O)CCNCc1ccc(-c2ccc3ncnc(Nc4ccc(OCc5cccc(F)c5)c(Cl)c4)c3c2)o1 [Lapatinib] (partner 2 µM)
Summary of the method: as §1

[3] = compound: C1CNCCC1C2=CC(=NN2)C3=CC=NC=C3 + NC(=O)Nc1cc(-c2cccc(F)c2)sc1C(=O)N[C@H]1CCCNC1 [AZD7762] (partner 0.2 µM)
Summary of the method: as §1

Tanzisertib + Pictilisib = compound: O[C@H]1CC[C@H](Nc2ncc3nc(Nc4c(F)cc(F)cc4F)n([C@H]4CCOC4)c3n2)CC1 [Tanzisertib] + CS(=O)(=O)N1CCN(Cc2cc3nc(-c4cccc5[nH]ncc45)nc(N4CCOCC4)c3s2)CC1 [Pictilisib] (partner 1 µM)
Summary of the method: as §1

Cell Line | relative viability ([1]; first compound 0.08 µM) | relative viability ([1]; first compound 0.8 µM) | relative viability ([1]; first compound 2.53 µM) | relative viability ([1]; first compound 8 µM) | relative viability ([2]; first compound 0.08 µM) | relative viability ([2]; first compound 0.8 µM) | relative viability ([2]; first compound 2.53 µM) | relative viability ([2]; first compound 8 µM) | relative viability ([3]; first compound 0.08 µM) | relative viability ([3]; first compound 0.8 µM) | relative viability ([3]; first compound 2.53 µM) | relative viability ([3]; first compound 8 µM) | relative viability (Tanzisertib + Pictilisib; first compound 0.08 µM) | relative viability (Tanzisertib + Pictilisib; first compound 0.253 µM) | relative viability (Tanzisertib + Pictilisib; first compound 0.8 µM) | relative viability (Tanzisertib + Pictilisib; first compound 2.53 µM) | relative viability (Tanzisertib + Pictilisib; first compound 8 µM)
NCI-H460 | 0.0398 | 0.0336 | 0.0427 | 0.0305 | 0.68 | 1.4 | 1.11 | 1.03 | 0.69 | 0.673 | 0.652 | 0.658 | 0.495 | 0.368 | 0.362 | 0.317 | 0.0876
NCI-H2085 | 0.412 | 0.38 | 0.498 | 0.435 | 0.877 | 0.51 | 0.819 | 0.772 | 0.999 | – | 1.03 | 1 | 0.474 | 0.454 | 0.465 | 0.478 | 0.435
PC-14 | 0.151 | 0.162 | 0.18 | 0.151 | 0.348 | 0.304 | 0.318 | 0.38 | 0.363 | 0.383 | 0.237 | 0.348 | 0.778 | 0.594 | 0.799 | 0.693 | 0.203
HOP-62 | 0.999 | 1.06 | 0.837 | 0.847 | 1.09 | 1.17 | 1.1 | 1.12 | 0.67 | 1 | 0.751 | 0.462 | 0.851 | 0.874 | 0.856 | 0.871 | 0.341
NCI-H2087 | 0.145 | 0.178 | 0.281 | 0.254 | 1.25 | 1.26 | 0.944 | 0.948 | 1.18 | 1.46 | 1.33 | 1.22 | 1.17 | 0.838 | 0.886 | 0.753 | 0.743
NCI-H1793 | 0.197 | 0.169 | 0.182 | 0.186 | 0.581 | 0.725 | 0.644 | 0.666 | 0.369 | – | 0.615 | 0.61 | 0.378 | 0.234 | 0.377 | 0.251 | 0.317
PC-3 [JPC-3] | 0.643 | 0.673 | 0.7 | 0.556 | 0.426 | 0.446 | 0.499 | 0.471 | 0.879 | 0.817 | 0.689 | 0.936 | 0.741 | 0.823 | 0.688 | 0.673 | 0.577
H3255 | 0.755 | 0.955 | 1.15 | 1.08 | 0.265 | 0.255 | 0.262 | 0.261 | 0.954 | 0.835 | 1.12 | 0.967 | 0.548 | 0.452 | 0.487 | 0.457 | 0.253
